Measurements as given in PMC6742641, “Design, synthesis and biological evaluation of a series of CNS penetrant HDAC inhibitors structurally derived from amyloid-β probes” (Scientific Reports, 2019).
Where two headings read alike, the source gives them in different places. Each block holds one molecule with its values, some of them ahead of it.

Columns and labels:
[1] = test system: SH-SY5Y cells; assay: Cell proliferation (anti-proliferation) assay, MTS; type: cell-based, human; details: for GI50 / IC50: Homo sapiens; for GI50: SH-SY5Y neuroblastoma cell line, 72 h, mean ± SD (n = 4); for IC50: read-out: anti-proliferative activity IC50 against SH-SY5Y cell line
Protocol: SH-SY5Y cells were grown in DMEM with L-glutamin supplemented with streptomycin ([…]), penicillin (100 units/mL), and 10% fetal bovine serum (FBS). Cells were grown to confluence in a humidified atmosphere (37 °C, 5% CO2).
SH-SY5Y cells (1.5 × 10^3 cells/well) were seeded in a clear 96-well plate, the medium volume was brought to 100 µL, and the cells were allowed to attach overnight. The next day, various concentrations of compounds or DMSO were added to the wells. Cells were then incubated at 37 °C for 24, 48 and 72 h. Cell viability was determined using the Promega Cell Titer 96 Aqueous One Solution cell proliferation assay. Absorbance at 490 nm was read on Tecan Infinite F200 Pro plate reader, and values were expressed as percent of absorbance from cells incubated in DMSO alone.

[2] = PAMPA-BBB assay; type: in vitro ADME; details: for Papp at 4 h, 25 μM: PAMPA, read-out: Pe
Protocol: BBB-PAMPA was conducted by manufacturer’s instruction (pION Inc, MA, USA). […] Transmembrane side to donor part was coated with BBB lipid solution and add 200 μL acceptor buffer in upper part of PAMPA sandwich plate.

[3] = In vivo brain pharmacokinetic study; details: ICR male mice, IV, 2 mg/kg
Protocol: The study was approved by the Institutional Animal Care and Use of Committee of Daegu-Gyeongbuk Medical Innovation Foundation (DGMIF) and performed in accordance with protocols approved by the Institutional Animal Care and Use of Committee. […] Brain and plasma samples were collected at 0.5 and 1 h time points. Brain samples were homogenized at a 1:4 ratio of sample weight (g) to PBS volume (mL). Aliquots (20 μL) of brain homogenate were mixed with 180 μL of acetonitrile, vortexed and centrifuged at 15,000 rpm for 5 minutes at 4 °C. The resulting supernatants were used for LC-MS/MS analysis. Mice plasma samples were collected at 0.5 and 1 h time points. 180 μL of acetonitrile was added to 20 μL of plasma samples, vortexed and centrifuged at 15,000 rpm for 5 minutes at 4 °C.

[4] = test system: Ac-α-tubulin; assay: Western blot of acetylation status in SH-SY5Y cells; type: cell-based, human; details: 24 h, 1 μM
Protocol: Cells were seeded in 100 mm culture dishes (1 × 10^6 cells/dish), and allowed to attach overnight. Inhibitors were added at the concentrations as indicated and the cells were incubated for an additional 24 hours. For comparison, cells were also incubated with DMSO (0.5%) for 24 hours. Cells were harvested in ice-cold lysis buffer (23 mM Tris-HCl pH 7.6, 130 mM NaCl, 1% NP-40, 1% sodium deoxycholate, 0.1% SDS), and 30 µg of lysate per lane was separated by SDS-PAGE and followed by transferring to a PVDF membrane (Bio-Rad). The membrane was blocked with 5% skim milk in TBST, and then incubated with the corresponding antibody (Ac-α-tubulin, α-tubulin, Ac-Histone H3, Histone H3 or β-actin). After binding of an appropriate secondary antibody coupled to horseradish peroxidase, proteins were visualized by ECL chemiluminescence according to the instructions of the manufacturer (GE healthcare, USA).

[5] = 25 μM, pH 7.4, 4 h, 25 °C, mean ± SD, three independent experiments

GI50 [1]: 28.2 ± 0.75 µM
Compound: CCn1c(-c2cccc(C(=O)NO)c2)nc2ccccc21 [Compound 14b]

GI50 [1]: 17.5 ± 0.35 µM
Compound: O=C(NO)c1cccc(-c2nc3ccccc3o2)c1 [Compound 17a]

IC50 ([1]; SH-SY5Y): 2.9 µM
GI50 [1]: 2.9 ± 0.28 µM
Pe (10^−6 cm/s) [2, 5]: 2.77 10^−6 cm/s
Papp at 4 h, 25 μM [2, 5]: 2.77 ± 0.05 ×10⁻⁶ cm/s
Brain concentration (ng/mL) 0.5 h ([3]; 0.5 h, n = 4): 14.5 ± 2.8 ng/mL
Brain concentration (ng/mL) 1 h ([3]; 1 h, n = 4): BQL
Kp at 0.5 h ([3]; mouse, brain/plasma, 0.5 h, read-out: Brain/plasma ratio 0.5 h): 0.4
concentration at 0.5 h ([3]; mouse, brain, 0.5 h, n = 4, read-out: Brain concentration (ng/mL) 0.5 h): 14.5 ng/mL
concentration at 0.5 h ([3]; mouse, plasma, 0.5 h, n = 4, read-out: Plasma concentration (ng/mL) 0.5 h): 39.2 ± 11.5 ng/mL
concentration at 1 h ([3]; mouse, plasma, 1 h, n = 4, read-out: Plasma concentration (ng/mL) 1 h): 4.5 ± 2.7 ng/mL
Compound: O=C(CCCCCCC(=O)Nc1ccccc1)NO [SAHA, suberoylanilide hydroxamic acid, reference compound]
acetylation of α-tubulin at 1 μM, SAHA versus 9b [4]: induced more acetylation of α-tubulin than compound 9b

CNS +/− classification ([2]; PAMPA-BBB): CNS + (CNS + indicates (Pe > 10))
Papp at 4 h, 25 μM [2, 5]: 35.52 ± 0.33 ×10⁻⁶ cm/s
Compound: CC(=O)[C@H]1CC[C@H]2[C@@H]3CCC4=CC(=O)CC[C@]4(C)[C@H]3CC[C@]12C [Progesterone]

GI50 [1]: > 100 µM
Compound: Cn1c(-c2cccc(C(=O)NO)c2)nc2ccccc21 [Compound 14a]

GI50 [1]: 60 ± 1.5 µM
IC50 ([1]; SH-SY5Y, Table 1 values IC50): 60 µM
Compound: O=C(NO)c1ccc(-c2nc3ccccc3[nH]2)cc1 [Compound 5]

GI50 [1]: 25.7 ± 0.05 µM
IC50 ([1]; SH-SY5Y, Table 1 values IC50): 25.7 µM
Compound: O=C(NO)c1ccc(-c2nc3ccccc3o2)cc1 [Compound 9a]
fold less potent anti-proliferative activity than compound 9b ([1]; SH-SY5Y): 12 fold

GI50 [1]: 34.6 ± 0.6 µM
Compound: CCCn1c(-c2cccc(C(=O)NO)c2)nc2ccccc21 [Compound 14c]

GI50 [1]: 21.4 ± 1.65 µM
Compound: O=C(NO)c1cccc(-c2nc3ccccc3s2)c1 [Compound 17b]

GI50 [1]: 26.8 ± 1.35 µM
IC50 ([1]; SH-SY5Y, Table 1 values IC50): 26.8 µM
Compound: CCCCn1c(-c2ccc(C(=O)NO)cc2)nc2ccccc21 [Compound 6d]
fold increase in potency from non-substituted analogue 5 ([1]; SH-SY5Y): ~2 fold

GI50 [1]: > 100 µM
Compound: O=C(NO)c1cccc(-c2nc3ccccc3[nH]2)c1 [Compound 13]

GI50 [1]: 20.7 ± 1 µM
Compound: CCCCn1c(-c2cccc(C(=O)NO)c2)nc2ccccc21 [Compound 14d]

GI50 [1]: 54.7 ± 0.95 µM
Compound: CCCn1c(-c2ccc(C(=O)NO)cc2)nc2ccccc21 [Compound 6c]

GI50 [1]: 38.1 ± 0.2 µM
Compound: CCn1c(-c2ccc(C(=O)NO)cc2)nc2ccccc21 [Compound 6b]

GI50 [1]: 58.3 ± 10.8 µM
Compound: Cn1c(-c2ccc(C(=O)NO)cc2)nc2ccccc21 [Compound 6a]
